Measured values published in PubChem BioAssay AID328 (DTP/NCI, 2004).
Values joined by “and” are separate entries in the source; they are usually repeats but may differ in a detail not shown here. Equal values may be shown once. Inconclusive results and toxic doses are left out. The calls were made as follows: active = survival T/C of 150% or more; inactive = T/C below 125% in these data.

System: BDF1 mice, P388 leukemia ip, median survival T/C
Assay: NCI In Vivo Anticancer Drug Screen. Data for tumor model P388 Leukemia (intraperitoneal) in B6D2F1 (BDF1) mice
Conditions: endpoint: median survival time, higher = longer survival
In short: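 Antitumour effect was judged in vivo: survival in drug-treated mice, normalised to that of vehicle-dosed controls, gives the reported T/C.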

[1] = dose: 25.0 mg/kg/injection, schedule: Q01DX009 (ip), vehicle: Klucel (hydroxypropylcellulose) (HPC)
[2] = dose: 25.0 mg/kg/injection, schedule: Q01DX009 (ip), vehicle: saline with Tween-80
[3] = dose: 50.0 mg/kg/injection, schedule: Q01DX009 (ip), vehicle: Klucel (hydroxypropylcellulose) (HPC)
[4] = dose: 50.0 mg/kg/injection, schedule: Q01DX009 (ip), vehicle: saline with Tween-80
[5] = dose: 100.0 mg/kg/injection, schedule: Q01DX009 (ip), vehicle: Klucel (hydroxypropylcellulose) (HPC)
[6] = dose: 100.0 mg/kg/injection, schedule: Q01DX009 (ip), vehicle: saline with Tween-80
[7] = dose: 100.0 mg/kg/injection, schedule: Q04DX003 (ip), vehicle: Klucel (hydroxypropylcellulose) (HPC)
[8] = dose: 200.0 mg/kg/injection, schedule: Q04DX003 (ip), vehicle: Klucel (hydroxypropylcellulose) (HPC)
[9] = dose: 200.0 mg/kg/injection, schedule: Q01DX009 (ip), vehicle: Klucel (hydroxypropylcellulose) (HPC)

Measured: T/C

COC(=O)C1C(O)C(C)C(O)C(C)C=C(C)C2=C3C(=C(C)C(=O)c4c(O)c(c(C)c(OC(C)=O)c43)NC(=O)C(C)=C/C=C\C(C)C(O)C(C)C1O)OCO2 (centres undefined)
inactive: [1] 101 % of control | [2] 90 % of control | [3] 110 % of control and 97 % of control | [4] 109 % of control | [5] 101 % of control and 113 % of control | [6] 90 % of control

CC1OC2CC(=O)OC2C2=C1C(=O)c1c(O)c3c(c(O)c1C2=O)C1CC(O)C3(O)C(C)O1 (centres undefined)
inactive: dose: 2.5 mg/kg/injection, schedule: Q01DX010 (ip), vehicle: saline 115 % of control | dose: 5.0 mg/kg/injection, schedule: Q01DX010 (ip), vehicle: saline 115 % of control | dose: 10.0 mg/kg/injection, schedule: Q01DX010 (ip), vehicle: saline 115 % of control

O=C(O)C(CSC(c1ccccc1)c1ccccc1)N1C(=O)c2ccccc2C1=O (centres undefined)
inactive: dose: 50.0 mg/kg/injection, schedule: Q04DX003 (ip), vehicle: Klucel (hydroxypropylcellulose) (HPC) 100 % of control | [7] 104 % of control | [8] 95 % of control

C=CCc1ccccc1OC
inactive: [4] 118 % of control | [6] 104 % of control

COc1cccc2c1CCCC2=O
inactive: [3] 96 % of control | [5] 104 % of control | [9] 104 % of control

Cc1c2c(O)c(O)c(O)cc2c[n+]2ccccc12
inactive: dose: 6.25 mg/kg/injection, schedule: Q01DX009 (ip), vehicle: saline 100 % of control | dose: 12.5 mg/kg/injection, schedule: Q01DX009 (ip), vehicle: saline 106 % of control | dose: 25.0 mg/kg/injection, schedule: Q01DX009 (ip), vehicle: saline 123 % of control

CC(C)CCOC(=O)CN(CC(=O)OCCC(C)C)c1ccccc1
inactive: [6] 100 % of control | dose: 200.0 mg/kg/injection, schedule: Q01DX009 (ip), vehicle: saline with Tween-80 100 % of control | dose: 400.0 mg/kg/injection, schedule: Q01DX009 (ip), vehicle: saline with Tween-80 95 % of control

O=CNc1c(Cl)c(Cl)c2c(c1Cl)Cc1cc(Cl)ccc1-2
inactive: dose: 0.18 mg/kg/injection, schedule: Q01DX009 (ip), vehicle: DMSO 91 % of control | dose: 0.37 mg/kg/injection, schedule: Q01DX009 (ip), vehicle: DMSO 95 % of control | dose: 0.75 mg/kg/injection, schedule: Q01DX009 (ip), vehicle: DMSO 100 % of control | dose: 3.0 mg/kg/injection, schedule: Q01DX009 (ip), vehicle: DMSO 89 % of control | dose: 12.5 mg/kg/injection, schedule: Q01DX009 (ip), vehicle: DMSO 96 % of control | dose: 50.0 mg/kg/injection, schedule: Q01DX001 (ip), vehicle: Klucel (hydroxypropylcellulose) (HPC) 90 % of control | dose: 100.0 mg/kg/injection, schedule: Q01DX001 (ip), vehicle: Klucel (hydroxypropylcellulose) (HPC) 90 % of control | [5] 116 % of control | [7] 90 % of control and 100 % of control | dose: 200.0 mg/kg/injection, schedule: Q01DX001 (ip), vehicle: Klucel (hydroxypropylcellulose) (HPC) 86 % of control | [9] 116 % of control | [8] 90 % of control and 91 % of control | dose: 400.0 mg/kg/injection, schedule: Q01DX009 (ip), vehicle: Klucel (hydroxypropylcellulose) (HPC) 105 % of control | dose: 400.0 mg/kg/injection, schedule: Q04DX003 (ip), vehicle: Klucel (hydroxypropylcellulose) (HPC) 86 % of control and 87 % of control

O=[N+]([O-])c1cc([N+](=O)[O-])c2ccccc2c1NS(=O)(=O)c1ccc(Br)cc1
inactive: [2] 112 % of control | [4] 113 % of control

OCC1(c2ccccc2)CCN(Cc2ccccc2)CC1
inactive: [1] 107 % of control | [3] 107 % of control | [5] 87 % of control | [7] 91 % of control | [8] 87 % of control
